Structures are written as SMILES. Read-outs that look alike come from different tables or passages of the source. Where only a bound is given, the exact number is not on record here.

Experiment [1] deals with T1, HIV protease (Human immunodeficiency virus type 1 group M subtype B, UniProt P04585).
T1 construct: and purified protease
Put plainly: HIV Protease Assay. The class given is biochemical. The procedure, abridged:
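At a single final concentration of 10 μM (4% DMSO), inhibitors were added to a 30-minute, 37° C reaction of purified enzyme with 450 μM H2N-Val-Ser-Gln-Asn-(β-naphthyl-alanine)-Pro-Val-Ile-OH at pH 5.5 (sodium acetate, BSA). Hydrolysis was quantified by reverse-phase HPLC with 220 nm detection after acid quench.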

Experiment [2] deals with RF strain of HIV (CEM-SS cells). Description: Cell Culture Anti-HIV Activity (cell viability, formazan). The experiment is classed as cell-based. The following applies: Human immunodeficiency virus 1, CEM-SS, 144 h, CEM-SS cells, RF strain of HIV, multiplicity of infection 0.04, 6 days at 37° C., 450 nm; read-out: HIV (CEM Cells) IC50. Put shortly:
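Half-log compound dilutions added to CEM-SS cells (5000/well) carrying HIV RF (MOI 0.04), 6 days, 37° C. Cell protection measured as formazan from tetrazolium, A450. IC50: drug level restoring infected-cell formazan to 50% of the uninfected untreated control.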

Where [3] appears, read: pH 5.5, 10 μM inhibitor, 4% DMSO, 450 μM substrate, pH 5.5, 30 minutes at 37° C., RP-HPLC, read-out: HIV Protease % Inhibition at 10 μM.
The mark [4] stands for this setting: pH 5.5, read-out: HIV Protease % Inhibition at 10 μM.

In the case of `CC(C)(C)[C@@](C)(O)C(=O)N[C@@H](Cc1ccccc1)[C@H](O)CNC[C@@H](O)[C@H](Cc1ccccc1)NC(=O)[C@](C)(O)C(C)(C)C` [Compound 344, [2R-[R*(R*,S*)]]-N,N'-[Iminobis[2-hydroxy-l-(phenylmethyl)-3,1-propanediyl]]bis[2-hydroxy-2,3,3-trimethylbutaneamide]], the inhibition at 10 µM in experiment [1] (setting [3]) came out at 99%. The IC50 in experiment [2] was found to be 30 nM.
On to `CC(C)(C)OC(=O)N[C@@H](Cc1ccccc1)[C@H](O)CNC[C@@H](O)[C@H](Cc1ccccc1)NC(=O)[C@@H](NC(=O)OCc1nc(-c2ccccc2)co1)C(C)(C)C` [Compound 345, [S-(1R*,2S*(2S*,3R*)]]-[2,2-Dimethyl-1-[[[3-[[3-[[1,1-dimethylethoxy)-carbonyl]amino]-2-hydroxy-4-phenylbutyl]amino]-2-hydroxy-1-(phenylmethyl)propyl]amino]-carbonyl]propyl]carbamic acid, (4-phenyl-2-oxazolyl)methyl ester], for which the inhibition at 10 µM in experiment [1] (setting [3]) came out at 99%. Further, the IC50 in experiment [2] stood at 330 nM.
`CC(C)(C)OC(=O)N[C@@H](Cc1ccccc1)[C@H](O)CNC[C@@H](O)[C@H](Cc1ccc(OCC(=O)O)cc1)NC(=O)OC(C)(C)C` [Compound 346, [1S-[1R*,2S*(2S*,3R*)]-[4-[4-(Carboxymethoxy)phenyl)-3-[[3-[[1,1-dimethylethoxy)carbonyl]amino]-2-hydroxy-1-(phenylmeyhyl)propyl)carbamic acid, 1, 1dimethylethyl ester]: in experiment [1] (setting [3]), the inhibition at 10 µM was determined as 98%. Moreover, the IC50 in experiment [2] was over 50000 nM.
Consider `CC(C)(C)OC(=O)N[C@@H](Cc1ccccc1)[C@H](O)CNC[C@@H](O)[C@H](Cc1ccccc1)NC(=O)[C@@H](NC(=O)OCc1ncc(-c2ccccc2)o1)C(C)(C)C` [Compound 347, [S-(1R*,2S*(2S*,3R*)]]-[2,2-Dimethyl-1-[[[3-[[3-[[1,1-dimethylethoxy)-carbonyl]amino]-2-hydroxy-4-phenylbutyl]amino]-2-hydroxy-1-(phenylmethyl)propyl]amino]carbonyl]-propyl]carbamic acid, (5-phenyl-2-oxazolyl)methyl ester], for which, in experiment [1] (setting [3]), the inhibition at 10 µM is 99%. Besides, in experiment [2], the IC50 came to 50 nM.
Regarding `COc1ccccc1C[C@H](NC(=O)OC(C)(C)C)[C@H](O)CNC[C@@H](O)[C@H](Cc1ccccc1)NC(=O)OC(C)(C)C` [Compound 349, [1S-[1R*,2S*(2S*,3R*)]]-[3-[[3-1,1-Dimethylethoxy)-carbonyl]amino]-2-hydroxy-4-(2-methoxyphenyl)butyl]-amino]-2-hydroxy-1-(phenylmethyl)propyl]carbamic acid, 1,1-dimethylethyl ester], the inhibition at 10 µM in experiment [1] (setting [3]) came out at 98%. Besides, the IC50 in experiment [2] was determined as 370 nM.
The like results for `CC(C)(C)OC(=O)N[C@@H](Cc1ccccc1)[C@H](O)CNC[C@@H](O)[C@H](Cc1ccccc1O)NC(=O)OC(C)(C)C` [Compound 350, [1S-[1R*,2S*(2S*,3R*)]]-[3-[[3-[[(1,1-Dimethylethoxy)carbonyl]amino]-2-hydroxy-4-(2-hydroxyphenyl)butyl]amino]-2-hydroxy-1-(phenylmethyl)propyl]carbamic acid, 1,1-dimethylethyl ester] were, in that order, 98% and 500 nM.
`CC(C)(C)OC(=O)N[C@@H](Cc1ccccc1)[C@H](O)CNC[C@@H](O)[C@H](Cc1ccccc1)NC(=O)[C@@H](NC(=O)OCCOCc1ccccc1)C(C)(C)C` [Compound 351, [S-[1R*,2S*(2S*,3R*)]]-[2,2-Dimethyl-1-[[[3-[[3-[[(1,1-dimethyl-ethoxy)carbonyl]amino]-2hydroxy-4-phenylbutyl]amino-2-hydroxy-1-(phenylmethyll)-propyl]amino]carbonyl]propyl]carbamic acid, 2-(phenylmethoxy)ethyl ester]: in experiment [1] (setting [3]), the inhibition at 10 µM was 99%. For the same compound, the 50% inhibitory concentration (IC50) in experiment [2] was found to be 80 nM.
For the compound `CC(C)(C)OC(=O)N[C@@H](Cc1ccccc1)[C@H](O)CNC[C@@H](O)[C@H](Cc1ccccc1)NC(=O)[C@@H](NC(=O)OCc1cc2cccnc2o1)C(C)(C)C` [Compound 352, [S-[1R*,2S*(2S*,3R*)]]-[2,2-Dimethyl-1-[[[3-[[3-[[(1,1-dimethylethoxy)carbonyl]amino]-2-hydroxy-4-phenylbutyl]amino]-2-hydroxy-1-(phenylmethyl)-propyl]amino]carbonyl]propyl]carbamic acid, (2-furo[2,3-b]pyridinyl)methyl ester], the inhibition at 10 µM in experiment [1] (setting [3]) stood at 99%. In experiment [2], the IC50 turned out to be 100 nM.
In the case of `CC(C)(C)OC(=O)N[C@@H](Cc1ccccc1)[C@H](O)CNC[C@@H](O)[C@H](Cc1ccccc1)NC(=O)[C@](C)(O)c1ccccc1` [Compound 353, [1S-[1R*,2S*[2S*,3R*(S*)]]]-[3-[[3-[(2-Hydroxy-1-oxo-2-phenylpropyl)amino]-2-hydroxy-4-phenylbutyl]amino]-2-hydroxy-l-(phenylmethyl)propyl]carbamic acid, 1,1-dimethylethyl ester], the inhibition at 10 µM in experiment [1] (setting [4]) worked out at 98%. In addition, in experiment [2], the IC50 came to 1100 nM.
Turning to `CNC(=O)C(C(=O)N[C@@H](Cc1ccccc1)[C@H](O)CNC[C@@H](O)[C@H](Cc1ccccc1)NC(=O)OC(C)(C)C)C(C)(C)C` (stereo partly drawn) [Compound 354, [1S-[1R*,2S*(2S*,3R*)]]-[3-[[3-[[3,3-Dimethyl-2-[(methylamino)carbonyl]-1-oxobutyl]amino]-2-hydroxy-4-phenylbutyl]amino]-2-hydroxy-1-(phenylmethyl)propyl]carbamic acid, 1,1-dimethylethyl ester], the inhibition at 10 µM in experiment [1] (setting [3]) turned out to be 99%. In addition, the IC50 in experiment [2] amounted to 120 nM.
Turning to `CC(C)(O)COc1ccc(C[C@H](NC(=O)OC(C)(C)C)[C@H](O)CNC[C@@H](O)[C@H](Cc2ccccc2)NC(=O)OC(C)(C)C)cc1` [Compound 358, [1S-[1R*,2S*(2S*,3R*)]]-[3-[[3-[[(1,1-Dimethylethoxy)carbonyl]amino]-2-hydroxy-4-[4-(2-hydroxy-2-methylpropoxy)phenyl]butyl]amino]-2-hydroxy-1-(phenylmethyl)propyl]carbamic acid, 1,1-dimethylethyl ester], in experiment [1] (setting [4]), the inhibition at 10 µM was found to be 99%. Moreover, the IC50 in experiment [2] is 100 nM.
For `CC(C)(C)OC(=O)N[C@@H](Cc1ccccc1)[C@H](O)CNC[C@@H](O)[C@H](Cc1ccccc1)NC(=O)OC1CCS(=O)(=O)C1` (stereo partly drawn) [Compound 360, [1S-(1R*,2S*)]-[Iminobis[2-hydroxy-1-(phenylmethyl)-3,1-propanediyl)]bis[carbamic acid], 1,1-dimethylethyl tetrahydro-1,1-dioxo-3-thienyl ester], in experiment [1] (setting [3]), the inhibition at 10 µM was 96%. Besides, in experiment [2], the IC50 worked out at 450 nM.
In the case of `CN1CCN(CCOc2ccc(C[C@H](NC(=O)OC(C)(C)C)[C@H](O)CNC[C@@H](O)[C@H](Cc3ccccc3)NC(=O)OC(C)(C)C)cc2)C1=O` [Compound 363, [1S-[1R*,2S*(2S*,3R*)]]-[3-[[3-[[(1,1-Dimethylethoxy)carbonyl]amino]-2-hydroxy-4-[4-[2-(3-methyl-2-oxo-1-imidazolidinyl)-ethoxy]phenyl]butyl]amino]-2-hydroxy-1-(phenylmethyl)propyl]carbamic acid, 1,1-dimethylethyl ester], the inhibition at 10 µM in experiment [1] (setting [4]) is 99%. The IC50 in experiment [2] was found to be 40 nM.

These data come from patent US5760036A, “Aminediol protease inhibitors” (E. R. Squibb & Sons, Inc., priority 1995, dated 1998).
